Consider 1 compound from paper PMC12019328, “Discovery of an ApoE4-targeted small-molecule SirT1 enhancer for the treatment of Alzheimer’s disease” (Scientific Reports, 2025).

Common to all, as to assay type: in vivo
One series deals with PRMT5 mRNA. The series can be described thus: Hippocampal PRMT5 mRNA in ApoE4-TR:5xFAD mice. The conditions noted are these: 20 mg/Kg BID, 56 days, vs vehicle. As to the method: (§1) The active (-) enantiomer, DDL-218, underwent efficacy testing in ApoE4-TR:5xFAD mice[27] that were 6-7.5 months old at the start of treatment. ApoE4-TR:5xFAD male and female mice received either 20 mg/Kg DDL-218 BID (~ 8- to10-hour interval; total daily dose of 40 mkd) on weekdays and a single 40 mg/Kg dose on weekends (n = 12) or vehicle-only (n = 11); 8 C57BL/6 mice received vehicle-only as behavioral controls. Dosing was by the oral route and by oral feeding using a pipette as previously described, not gavage, as it is safer for repeated oral dosing than gavage. The dose of 20 mg/kg BID (40 mkd) was selected based on findings from PK analysis and was the highest feasible in the formulation used for oral feeding (compound is first solubilized in water, then mixed strawberry syrup diluted in water, for a final vehicle that is 25% syrup and 75% water). […]
Total RNA was isolated from cells or brain tissue (Qiagen RNEasy kit). Total RNA (0.5–1.0 µg) mRNA was then converted to cDNA (SuperScript™ III First-Strand Synthesis SuperMix kit; Thermo Fisher), and gene mRNA levels were measured using a gene-specific qRT-PCR Taqman assays (Thermo Fisher). Gene mRNA levels were normalized to GAPDH mRNA levels measured either in the same cDNA sample or in the same qPCR reaction using multiplexing of gene-of-interest/VIC and GAPDH/FAM, normalized by the delta-delta-Ct method.

The next series has as its system ApoE4-TR:5xFAD mice. The series can be described thus: Barnes maze testing in ApoE4-TR:5xFAD mice. The conditions noted are these: 20 mg/Kg BID oral, 56 days, vs vehicle. As to the method: as §1, with “water). The final concentration of DDL-218 was chosen to deliver 20 mg/Kg in a volume of 10–20 µL (adjusted to the weight of each mouse).” for “water).”
For the probe test of memory, 48 h after the last training, the escape hole is closed and the escape box removed. […] Analysis of latency over the course of training trials was performed using ANY-Maze Software (Wood Dale, IL) and probe data was calculated manually as the software excludes mice that […] the escape hole within 90 s; in manual scoring, they are assigned a 90 s latency.

A short description of series [1]: Observable adverse effects in 56-day oral treatment of AD model mice. The conditions noted are these: 56-day oral treatment of ApoE4-expressing AD model mice. As to the method: (§2) The active (-) enantiomer, DDL-218, underwent efficacy testing in ApoE4-TR:5xFAD mice[27] that were 6-7.5 months old at the start of treatment. ApoE4-TR:5xFAD male and female mice received either 20 mg/Kg DDL-218 BID (~ 8- to10-hour interval; total daily dose of 40 mkd) on weekdays and a single 40 mg/Kg dose on weekends (n = 12) or vehicle-only (n = 11); 8 C57BL/6 mice received vehicle-only as behavioral controls. Dosing was by the oral route and by oral feeding using a pipette as previously described, not gavage, as it is safer for repeated oral dosing than gavage. The dose of 20 mg/kg BID (40 mkd) was selected based on findings from PK analysis and was the highest feasible in the formulation used for oral feeding (compound is first solubilized in water, then mixed strawberry syrup diluted in water, for a final vehicle that is 25% syrup and 75% water). The final concentration of DDL-218 was chosen to deliver 20 mg/Kg in a volume of 10–20 µL (adjusted to the weight of each mouse). Mice were treated for 56 days (8 weeks); in week 7, mice underwent Barnes maze testing[29] as described below.

In the next series the test system is SirT1 protein. The series can be described thus: SirT1 protein levels in hippocampi of ApoE4-TR:5xFAD mice. The conditions noted are these: 56 days, vs vehicle, not statistically significant. As to the method: as §2
On Day 56, mice were euthanized 2 h after the a.m. dose by pentobarbital over-anesthesia and cardiac puncture for the collection of blood in EDTA tubes on ice for the isolation of plasma by centrifugation at 3,000 x g for 10 min at 4 °C. Mice were perfused with saline at 5 ml/min. […]

Series [2] in a line: Observation of mice behavior in the PK study. The conditions noted are these: oral gavage 10 or 30 mg/Kg. As to the method:
C57BL/6J mice were administered DDL-214, -218, or -219 (n = 3 per compound) by oral gavage at a dose of 30 mg/kg in a volume of 5 mL/Kg based on mouse weight. One hour later, mice were euthanized by pentobarbital over-anesthesia and trans-cardial collection of blood for isolation of plasma by centrifugation at 10,000 x g for 10 min at 4 °C. Brain tissue was collected for analysis, frozen on dry ice and stored at -80 °C before analysis.

As for `CC(N)C(=O)OC(C)(C)Cc1ccncc1` (centres unmarked) [DDL-218], in the series with PRMT5 mRNA, the “hippocampal PRMT5 mRNA” value is recorded as “significantly increased”. Besides, the “latency to enter the escape hole, 48-hour post-training probe” value in the series on ApoE4-TR:5xFAD mice is on record as “decrease in latency”. The observable adverse effects result in series [1] is “not associated with any observable adverse effects”. In the series with SirT1 protein, the “increase of mean SirT1 protein levels in hippocampi” value was ~ 20%. For the same compound, in series [2], the “changes in mice behavior indicative of drug-induced toxicity” value is “No notable changes in mice behavior”.
